Source: patent publication US20260053812A1, “METHODS OF TREATING HYPERTENSION WITH A COMBINATION OF AN ALDOSTERONE SYNTHASE INHIBITOR AND A DIURETIC” (Mineralys Therapeutics, Inc., priority 2022, published 2026)
Several values for one entry are separate records, joined by “and”; a condition that tells them apart may be missing. Identical values can stand only once.

Experiment: Adverse events (TEAEs, SAEs, AESI; Safety Analysis Set)
[1] = Table 43, Part 1, 100 mg QD (N = 31)

Description: In analyses performed on the Safety Analysis Set, subjects will be analyzed according to their actual treatment received.

Compound: CC(=O)N[C@H]1CC[C@H](NC(=O)CN2CCN(c3nncc(-c4ccc(C)cc4)n3)CC2)CC1 [Compound A HBr]
- TEAE leading to permanent discontinuation from study drug, Vascular disorders, % (Part 1, Active (N = 133)): (2.3) %
- Subjects with TEAEs considered at least possibly related to study drug (Part 1, active drug, listed as lorundrostat): 27 (20.3%) subjects (%)
- AE requiring dose titration: Hyperkalemia (Part 1 All active, N 159): 6 (3.8%)
- AE requiring dose titration: Hyponatremia (Part 1 All active, N 159): 0
- AE requiring dose titration: Other possibly related (Part 1 All active, N 159): 0
- AE requiring dose titration: Other unrelated (Part 1 All active, N 159): 1 (0.6%)
- AE requiring study drug discontinuation: Hyperkalemia (Part 1 All active, N 159): 6 (3.8%)
- AE requiring study drug discontinuation: Hyponatremia (Part 1 All active, N 159): 0
- AE requiring study drug discontinuation: Hypotension (Part 1 All active, N 159): 2 (1.2%)
- AE requiring study drug discontinuation: Other possibly related (Part 1 All active, N 159): 1 (0.6%)
- AE requiring study drug discontinuation: Other unrelated (Part 1 All active, N 159): 11 (6.9%)
- Deaths (Part 1 or Part 2): No deaths
- Subjects with TEAE resulting in dose modification (Part 2): 7 subjects
- Muscle spasms (Part 2 100 mg QD cohort): 3 (9.7%) subjects (%)
- Subjects with ≥1 moderate on-treatment TEAE (Part 2 100 mg QD cohort): 12 (38.7%) subjects (%)
- AE requiring dose titration: Hyperkalemia (Part 2 100 mg QD, N 31): 1 (3.2%)
- AE requiring dose titration: Hyponatremia (Part 2 100 mg QD, N 31): 1 (3.2%)
- AE requiring dose titration: Other possibly related (Part 2 100 mg QD, N 31): 0
- AE requiring dose titration: Other unrelated (Part 2 100 mg QD, N 31): 0
- AE requiring study drug discontinuation: Hyperkalemia (Part 2 100 mg QD, N 31): 0
- AE requiring study drug discontinuation: Hyponatremia (Part 2 100 mg QD, N 31): 1 (3.4%)
- AE requiring study drug discontinuation: Hypotension (Part 2 100 mg QD, N 31): 1 (2.8%)
- AE requiring study drug discontinuation: Other possibly related (Part 2 100 mg QD, N 31): 0
- AE requiring study drug discontinuation: Other unrelated (Part 2 100 mg QD, N 31): 1 (2.8%)
- Subjects with any On-treatment TEAEs leading to withdrawal from study drug, % (Part 2, 100 mg QD (N = 31)): 6.5%
- TEAE leading to permanent withdrawal from study drug, Glomerular filtration rate decreased, % (Part 2, 100 mg QD (N = 31)): 3.2%
- TEAE leading to permanent withdrawal from study drug, Hyponatraemia, % (Part 2, 100 mg QD (N = 31)): 3.2%
- TEAE leading to permanent withdrawal from study drug, Investigations, % (Part 2, 100 mg QD (N = 31)): 3.2%
- TEAE leading to permanent withdrawal from study drug, Metabolism and nutrition disorders, % (Part 2, 100 mg QD (N = 31)): 3.2%
- TEAE leading to permanent withdrawal from study drug, Muscle spasms, % (Part 2, 100 mg QD (N = 31)): 3.2%
- TEAE leading to permanent withdrawal from study drug, Musculoskeletal and connective tissue disorders, % (Part 2, 100 mg QD (N = 31)): 3.2%
- Subjects with TEAEs considered at least possibly related to study drug (Part 2, lorundrostat): 9 subjects (%) and 9 (29.0%) subjects (%)
- On-treatment TEAE, Chronic kidney disease, % [1]: (6.5) %
- On-treatment TEAE, Chronic kidney disease, Mild, % [1]: (6.5) %
- On-treatment TEAE, Diarrhoea, % [1]: (6.5) %
- On-treatment TEAE, Diarrhoea, Mild, % [1]: (6.5) %
- On-treatment TEAE, Dizziness, % [1]: (6.5) %
- On-treatment TEAE, Dizziness, Mild, % [1]: (6.5) %
- On-treatment TEAE, Gastrointestinal disorders, % [1]: (16.1) %
- On-treatment TEAE, Gastrointestinal disorders, Mild, % [1]: (9.7) %
- On-treatment TEAE, Gastrointestinal disorders, Moderate, % [1]: (6.5) %
- On-treatment TEAE, Hyperkalaemia, % [1]: (25.8) %
- On-treatment TEAE, Hyperkalaemia, Mild, % [1]: (9.7) %
- On-treatment TEAE, Hyperkalaemia, Moderate, % [1]: (16.1) %
- On-treatment TEAE, Hyponatraemia, % [1]: (6.5) %
- On-treatment TEAE, Infections and infestations, % [1]: (16.1) %
- On-treatment TEAE, Infections and infestations, Mild, % [1]: (6.5) %
- On-treatment TEAE, Infections and infestations, Moderate, % [1]: (9.7) %
- On-treatment TEAE, Investigations, % [1]: (6.5) %
- On-treatment TEAE, Metabolism and nutrition disorders, % [1]: (32.3) %
- On-treatment TEAE, Metabolism and nutrition disorders, Mild, % [1]: (6.5) %
- On-treatment TEAE, Metabolism and nutrition disorders, Moderate, % [1]: (22.6) %
- On-treatment TEAE, Muscle spasms, % [1]: (9.7) %
- On-treatment TEAE, Muscle spasms, Moderate, % [1]: (6.5) %
- On-treatment TEAE, Musculoskeletal and connective tissue disorders, % [1]: (16.1) %
- On-treatment TEAE, Musculoskeletal and connective tissue disorders, Mild, % [1]: (6.5) %
- On-treatment TEAE, Musculoskeletal and connective tissue disorders, Moderate, % [1]: (9.7) %
- On-treatment TEAE, Nausea, % [1]: (6.5) %
- On-treatment TEAE, Nausea, Mild, % [1]: (6.5) %
- On-treatment TEAE, Nervous system disorders, % [1]: (6.5) %
- On-treatment TEAE, Nervous system disorders, Mild, % [1]: (6.5) %
- On-treatment TEAE, Renal and urinary disorders, % [1]: (6.5) %
- On-treatment TEAE, Renal and urinary disorders, Mild, % [1]: (6.5) %
- On-treatment TEAE, Urinary tract infection, % [1]: (6.5) %
- Subjects with any On-treatment TEAEs, Mild, % [1]: (19.4) %
- Subjects with any On-treatment TEAEs, Moderate, % [1]: (38.7) %
- Subjects with any On-treatment TEAEs, Severe, % [1]: (3.2) %
- AE requiring dose titration: Hyperkalemia (Total active, N 190): 7 (4.1%)
- AE requiring dose titration: Hyponatremia (Total active, N 190): 1 (0.5%)
- AE requiring dose titration: Other possibly related (Total active, N 190): 0
- AE requiring dose titration: Other unrelated (Total active, N 190): 1 (0.5%)
- AE requiring study drug discontinuation: Hyperkalemia (Total active, N 190): 6 (3.2%)
- AE requiring study drug discontinuation: Hyponatremia (Total active, N 190): 1 (0.5%)
- AE requiring study drug discontinuation: Hypotension (Total active, N 190): 3 (1.6%)
- AE requiring study drug discontinuation: Other possibly related (Total active, N 190): 1 (0.5%)
- AE requiring study drug discontinuation: Other unrelated (Total active, N 190): 12 (6.3%)
- Subjects who developed orthostatic hypotension (fall of 20 mmHg in SBP or 10 mmHg in DBP sitting to standing): three
- Subjects with hypotension related to treatment (two in 100 mg QD cohorts (Part 1, Part 2), one 12.5 mg BID, reversible with treatment cessation): three
- Overall safety and tolerability (whole study): safe and well tolerated
